Key:
[1] = molecular target: Dual specificity calcium/calmodulin-dependent 3',5'-cyclic nucleotide phosphodiesterase 1A (Homo sapiens, UniProt P54750); test: (§1) Enzyme Assay: Assay: The following phosphodiesterase enzymes may be used: 3′,5′-cyclic-nucleotide-specific bovine brain phosphodiesterase (Sigma, St. Louis, Mo.) (predominantly PDE1B) and recombinant full length human PDE1A and PDE1B (r-hPDE1A and r-hPDE1B respectively) which may be produced e.g., in HEK or SF9 cells by one skilled in the art. The PDE1 enzyme is reconstituted with 50% glycerol to 2.5 U/ml. One unit of enzyme will hydrolyze 1.0 μmole of 3′,5′-cAMP to 5′-AMP per min at pH 7.5 at 30° C. One part enzyme is added to 1999 parts reaction buffer (30 μM CaCl2, 10 U/ml of calmodulin (Sigma P2277), 10 mM Tris-HCl pH 7.2, 10 mM MgCl2, 0.1% BSA, 0.05% NaN3) to yield a final concentration of 1.25 mU/ml. 99 μl of diluted enzyme solution is added into each well in a flat bottom 96-well polystyrene plate to which 1 μl of test compound dissolved in 100% DMSO is added. The compounds are mixed and pre-incubated with the enzyme for 10 min at room temperature.
[2] = molecular target: Dual specificity calcium/calmodulin-dependent 3',5'-cyclic nucleotide phosphodiesterase 1B (Homo sapiens, UniProt Q01064); test: as §1
Dual specificity calcium/calmodulin-dependent 3',5'-cyclic nucleotide phosphodiesterase 1B, sequence (Q01064 whole entry): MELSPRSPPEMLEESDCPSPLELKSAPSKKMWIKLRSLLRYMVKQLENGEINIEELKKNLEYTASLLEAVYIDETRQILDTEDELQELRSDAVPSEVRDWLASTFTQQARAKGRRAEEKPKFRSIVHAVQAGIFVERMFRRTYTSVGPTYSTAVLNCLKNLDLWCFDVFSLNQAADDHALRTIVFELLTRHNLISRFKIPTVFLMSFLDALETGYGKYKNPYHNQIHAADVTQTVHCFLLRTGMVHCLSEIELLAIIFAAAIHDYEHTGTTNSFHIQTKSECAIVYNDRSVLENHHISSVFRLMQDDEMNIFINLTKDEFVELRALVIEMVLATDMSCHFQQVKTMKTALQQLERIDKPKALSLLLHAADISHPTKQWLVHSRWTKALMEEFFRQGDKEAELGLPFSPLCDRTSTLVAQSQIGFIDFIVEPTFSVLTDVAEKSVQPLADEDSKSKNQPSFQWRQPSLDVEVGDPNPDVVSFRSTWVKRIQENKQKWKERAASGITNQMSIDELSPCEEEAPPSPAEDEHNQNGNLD

Dual specificity calcium/calmodulin-dependent 3',5'-cyclic nucleotide phosphodiesterase 1A, sequence (P54750 whole entry): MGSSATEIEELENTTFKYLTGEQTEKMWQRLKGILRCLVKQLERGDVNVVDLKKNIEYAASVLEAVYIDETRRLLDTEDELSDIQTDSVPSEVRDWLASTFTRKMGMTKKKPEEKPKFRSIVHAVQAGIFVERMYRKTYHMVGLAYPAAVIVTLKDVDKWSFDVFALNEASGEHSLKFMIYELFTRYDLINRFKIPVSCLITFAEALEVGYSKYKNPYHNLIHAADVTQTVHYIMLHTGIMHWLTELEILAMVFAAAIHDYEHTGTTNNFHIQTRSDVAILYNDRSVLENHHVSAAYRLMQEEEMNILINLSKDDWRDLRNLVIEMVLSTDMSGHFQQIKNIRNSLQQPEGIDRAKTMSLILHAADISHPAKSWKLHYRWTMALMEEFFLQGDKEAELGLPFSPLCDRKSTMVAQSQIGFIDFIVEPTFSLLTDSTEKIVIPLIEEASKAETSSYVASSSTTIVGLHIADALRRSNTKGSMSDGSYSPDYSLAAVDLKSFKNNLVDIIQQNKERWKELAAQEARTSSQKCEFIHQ

CC(C)Sc1c2c(nn1Cc1ccc(-c3cccc(F)n3)cc1)N1CC(C)(C)N=C1N(C)C2=O
IC50 [1]: 5 nM | IC50 [2]: 3000 nM

Source: ChEMBL document CHEMBL5727558, “Organic compounds” (2020)
